In patent US11976072B2, “Diacylglycerol kinase modulating compounds” (priority 2021, dated 2024):
Read-outs that look alike come from different tables or passages of the source.

Experiments:
human DGKα = human DGKα (Homo sapiens, UniProt P23743); assay: DGKα Biochemical Activity Assay (ADP-Glo); details: recombinant DGKα 1 nM, 100 μM ATP, 18:1 DAG/POPS/octylglucoside micelles, 1 hour at 25° C.; geometric mean; read-out: HTBS DGKa 1X ATP KM IC50;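 note: luminescent detection of ADP produced as DGKα phosphorylates DAG to phosphatidic acid, IC50 from four-parameter nonlinear curve fit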
Chain of human DGKα (P23743 whole entry): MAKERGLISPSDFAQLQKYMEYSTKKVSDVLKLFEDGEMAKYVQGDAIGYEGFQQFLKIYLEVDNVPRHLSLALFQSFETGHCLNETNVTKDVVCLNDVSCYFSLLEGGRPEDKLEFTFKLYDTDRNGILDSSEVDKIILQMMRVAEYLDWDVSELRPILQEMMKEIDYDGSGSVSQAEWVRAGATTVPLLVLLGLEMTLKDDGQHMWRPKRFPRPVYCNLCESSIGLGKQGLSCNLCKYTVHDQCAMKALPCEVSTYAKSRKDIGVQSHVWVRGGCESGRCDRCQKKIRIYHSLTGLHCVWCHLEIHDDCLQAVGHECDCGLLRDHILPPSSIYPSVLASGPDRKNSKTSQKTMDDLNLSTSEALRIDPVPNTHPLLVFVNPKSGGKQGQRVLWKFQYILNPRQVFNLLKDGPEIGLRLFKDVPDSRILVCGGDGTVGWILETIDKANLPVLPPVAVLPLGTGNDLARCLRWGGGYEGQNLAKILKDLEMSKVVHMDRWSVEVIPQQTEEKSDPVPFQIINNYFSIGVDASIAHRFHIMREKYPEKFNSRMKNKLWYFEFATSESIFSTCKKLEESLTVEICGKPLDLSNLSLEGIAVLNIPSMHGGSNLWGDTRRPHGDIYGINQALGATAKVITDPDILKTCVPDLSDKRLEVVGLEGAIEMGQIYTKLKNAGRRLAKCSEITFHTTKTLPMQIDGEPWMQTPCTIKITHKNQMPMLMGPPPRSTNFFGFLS

[1] = test system: Jurkat NFκB-luciferase cells; assay: Jurkat NFκB-Luciferase Assay; assay type: cell-based; details: Homo sapiens
Procedure: The day after, the excess antibody was washed out five times with 100 ul/well of assay medium (RPMI supplemented with 10% fetal bovine serum) using a Biotek EL406 instrument and leaving 20 ul of residual volume in each well. Jurkat NFκB-luciferase cells (Promega #) were harvested and diluted to 1 million cells/ml in assay medium. […] Thirty microliters of medium containing the Jurkat NFκB-luciferase cells were then dispensed using a Biotek MicroFlo instrument in each well of the compound-containing plate. […] Forty microliters of One-Glo Ex (Promega) was then added to the assay mixture and luciferase activity was read on a Envision plate reader 7 minutes later.

[2] = Jurkat NFκB-luciferase cells activated with anti-CD3 antibody (OKT3), 2.5 hrs at 37° C., geometric mean, read-out: DGK NFKb Luciferase EC50
[3] = Jurkat, […], read-out: DGK NFKb Luciferase EC50 (nM)

| Compound | IC50 (human DGKα) [nM] | EC50 [1, 2] [nM] | EC50 [1, 3] [nM] |
| --- | --- | --- | --- |
| Cc1nnc2nc(N(CC(F)F)c3cc(F)cc(C#CC4(O)CCC4)c3)c3c(F)cccc3n12 [Example 21, 1-((3-((2,2-difluoroethyl)(6-fluoro-1-methyl-[1,2,4]triazolo[4,3-a]quinazolin-5-yl)amino)-5-fluorophenyl)ethynyl)cyclobutan-1-ol] | 21 | 9.42 | – |
| Cc1nnc2nc(N(CC(F)F)c3cc(F)cc(C#CC4(C)COC4)c3)c3c(F)cccc3n12 [Example 22, N-(2,2-difluoroethyl)-6-fluoro-N-(3-fluoro-5-((3-methyloxetan-3-yl)ethynyl)phenyl)-1-methyl-[1,2,4]triazolo[4,3-a]quinazolin-5-amine] | 18.9 | 10.1 | – |
| Cc1nnc2nc(N(CC(F)F)c3cc(F)cc(C#CC4COC4)c3)c3c(F)cccc3n12 [Example 23, N-(2,2-difluoroethyl)-6-fluoro-N-(3-fluoro-5-(oxetan-3-ylethynyl)phenyl)-1-methyl-[1,2,4]triazolo[4,3-a]quinazolin-5-amine] | 33.9 | 3.46 | – |
| Cc1nnc2nc(N(CC(F)F)c3cc(F)cc(C#CC4(C)COC4)c3)c3cc(F)ccc3n12 [Example 24, N-(2,2-difluoroethyl)-7-fluoro-N-(3-fluoro-5-((3-methyloxetan-3-yl)ethynyl)phenyl)-1-methyl-[1,2,4]triazolo[4,3-a]quinazolin-5-amine] | 15.1 | 4.7 | – |
| Cc1nnc2nc(N(CC(F)F)c3cc(F)cc(C#CC4(C(F)F)CC4)c3)c3c(F)cccc3n12 [Example 25, N-(2,2-difluoroethyl)-N-(3-((1-(difluoromethyl)cyclopropyl)ethynyl)-5-fluorophenyl)-6-fluoro-1-methyl-[1,2,4]triazolo[4,3-a]quinazolin-5-amine] | 30.2 | 7.37 | – |
| Cc1nnc2nc(N3CCCc4c(C#CC5CCOCC5)cccc43)c3c(F)cccc3n12 [Example 26, 6-fluoro-1-methyl-5-(5-((tetrahydro-2H-pyran-4-yl)ethynyl)-3,4-dihydroquinolin-1(2H)-yl)-[1,2,4]triazolo[4,3-a]quinazoline] | 22.5 | 2.46 | – |
| Cc1nnc2nc(N3CCCc4c(C#CC5(C)COC5)cccc43)c3c(F)cccc3n12 [Example 27, 6-fluoro-1-methyl-5-(5-((3-methyloxetan-3-yl)ethynyl)-3,4-dihydroquinolin-1(2H)-yl)-[1,2,4]triazolo[4,3-a]quinazoline] | 15.1 | 3.52 | – |
| Cc1nnc2nc(N3CCCc4c(C#CC5(O)CCC5)cccc43)c3cc(F)ccc3n12 [Example 28, 1-((1-(7-fluoro-1-methyl-[1,2,4]triazolo[4,3-a]quinazolin-5-yl)-1,2,3,4-tetrahydroquinolin-5-yl)ethynyl)cyclobutan-1-ol] | 9.49 | 5.09 | – |
| Cc1nnc2nc(N3CCCc4c(C#CC5(C)COC5)cccc43)c3cc(F)ccc3n12 [Example 29, 7-fluoro-1-methyl-5-(5-((3-methyloxetan-3-yl)ethynyl)-3,4-dihydroquinolin-1(2H)-yl)-[1,2,4]triazolo[4,3-a]quinazoline] | 3.31 | 0.66 | – |
| Cc1nnc2nc(N3CCCc4c(C#CC5CCC5)cccc43)c3cc(F)ccc3n12 [Example 30, 5-(5-(cyclobutylethynyl)-3,4-dihydroquinolin-1(2H)-yl)-7-fluoro-1-methyl-[1,2,4]triazolo[4,3-a]quinazoline] | 14.7 | 0.163 | – |
| Cc1nnc2nc(N3CCCc4c(C#CC5(C(C)(F)F)CC5)cccc43)c3cc(F)ccc3n12 [Example 31, 5-(5-((1-(1,1-difluoroethyl)cyclopropyl)ethynyl)-3,4-dihydroquinolin-1(2H)-yl)-7-fluoro-1-methyl-[1,2,4]triazolo[4,3-a]quinazoline] | 50.9 | 1.43 | – |
| Cc1nnc2nc(N3CCCc4c(C#CC5CC(F)(F)C5)cccc43)c3cc(F)ccc3n12 [Example 32, 5-(5-((3,3-difluorocyclobutyl)ethynyl)-3,4-dihydroquinolin-1(2H)-yl)-7-fluoro-1-methyl-[1,2,4]triazolo[4,3-a]quinazoline] | 11 | 0.461 | – |
| Cc1nnc2nc(N3CCCc4c(C#CC5(C)CC5)cccc43)c3c(Cl)c(F)ccc3n12 [Example 33, 6-chloro-7-fluoro-1-methyl-5-[5-[2-(1-methylcyclopropyl)ethynyl]-3,4-dihydro-2H-quinolin-1-yl]-[1,2,4]triazolo[4,3-a]quinazoline] | 42.4 | 1.59 | – |
| Cc1nnc2nc(N3CCCc4c(C#CC(C)(C)C(F)F)cccc43)c3c(Cl)c(F)ccc3n12 [Example 34, 6-chloro-5-[5-(4,4-difluoro-3,3-dimethyl-but-1-ynyl)-3,4-dihydro-2H-quinolin-1-yl]-7-fluoro-1-methyl-[1,2,4]triazolo[4,3-a]quinazoline] | 30.4 | 0.907 | – |
| Cc1nnc2nc(N3CCCc4c(C#CC5(C(F)F)CC5)cccc43)c3c(Cl)c(F)ccc3n12 [Example 35, 6-chloro-5-[5-[2-[1-(difluoromethyl)cyclopropyl]ethynyl]-3,4-dihydro-2H-quinolin-1-yl]-7-fluoro-1-methyl-[1,2,4]triazolo[4,3-a]quinazoline] | 5.44 | 1.14 | – |
| CC(C)(O)C#Cc1cccc2c1COCCN2c1nc2nncn2c2c(Cl)ccc(F)c12 [Example 40, 4-[1-(9-chloro-6-fluoro-[1,2,4]triazolo[4,3-a]quinazolin-5-yl)-3,5-dihydro-2H-4,1-benzoxazepin-6-yl]-2-methyl-but-3-yn-2-ol] | 12.6 | – | 17.1 |
| Cc1nnc2nc(N(CC(F)F)c3ccnc(C#CC(C)(C)O)c3F)c3c(F)cccc3n12 [Example 45, 4-[4-[2,2-difluoroethyl-(6-fluoro-1-methyl-[1,2,4]triazolo[4,3-a]quinazolin-5-yl)amino]-3-fluoro-2-pyridyl]-2-methyl-but-3-yn-2-ol] | 8.25 | – | 329 |

Second part, led by results:

| IC50 (human DGKα) [nM] | EC50 [1, 2] [nM] | Compound | EC50 [1, 3] [nM] |
| --- | --- | --- | --- |
| 9.93 | 1.85 | Cc1nnc2nc(N3CCCc4c(C#CC(C)(C)C#N)cccc43)c3c(Cl)c(F)ccc3n12 [Example 36, 4-[1-(6-chloro-7-fluoro-1-methyl-[1,2,4]triazolo[4,3-a]quinazolin-5-yl)-3,4-dihydro-2H-quinolin-5-yl]-2,2-dimethyl-but-3-ynenitrile] | – |
| 64.8 | 1.88 | Cc1nnc2nc(N3CCCc4c(C#CC5(C(F)(F)F)CC5)cccc43)c3c(Cl)c(F)ccc3n12 [Example 37, 6-chloro-7-fluoro-1-methyl-5-[5-[2-[1-(trifluoromethyl)cyclopropyl]ethynyl]-3,4-dihydro-2H-quinolin-1-yl]-[1,2,4]triazolo[4,3-a]quinazoline] | – |
| 126 | 3.95 | Fc1cc(Cl)c2c(c1)c(N1CCCc3c(C#CC4(C(F)(F)F)CC4)cccc31)nc1nncn12 [Example 38, 9-chloro-7-fluoro-5-[5-[2-[1-(trifluoromethyl)cyclopropyl]ethynyl]-3,4-dihydro-2H-quinolin-1-yl]-[1,2,4]triazolo[4,3-a]quinazoline] | – |
| 8.31 | 2.18 | Fc1ccc(Cl)c2c1c(N1CCOCc3c(C#CC4(C(F)F)CC4)cccc31)nc1nncn12 [Example 39, 1-(9-chloro-6-fluoro-[1,2,4]triazolo[4,3-a]quinazolin-5-yl)-6-[2-[1-(difluoromethyl)cyclopropyl]ethynyl]-3,5-dihydro-2H-4,1-benzoxazepine] | – |
| 11 | 1.39 | CC(C)(C#Cc1cccc2c1COCCN2c1nc2nncn2c2c(Cl)ccc(F)c12)C(F)F [Example 41, 1-(9-chloro-6-fluoro-[1,2,4]triazolo[4,3-a]quinazolin-5-yl)-6-(4,4-difluoro-3,3-dimethyl-but-1-ynyl)-3,5-dihydro-2H-4,1-benzoxazepine] | – |
| 6.93 | 2.32 | Cc1nnc2nc(N(CC(F)F)c3ccnc(C#CC(C)(C)C(F)F)c3F)c3c(F)cccc3n12 [Example 42, N-[2-(4,4-difluoro-3,3-dimethyl-but-1-ynyl)-3-fluoro-4-pyridyl]-N-(2,2-difluoroethyl)-6-fluoro-1-methyl-[1,2,4]triazolo[4,3-a]quinazolin-5-amine] | – |
| 9.97 | 1.22 | Cc1nnc2nc(N(CC(F)F)c3ccnc(C#CC(C)(C)C(F)(F)F)c3F)c3c(F)cccc3n12 [Example 43, N-(2,2-difluoroethyl)-6-fluoro-N-[3-fluoro-2-(4,4,4-trifluoro-3,3-dimethyl-but-1-ynyl)-4-pyridyl]-1-methyl-[1,2,4]triazolo[4,3-a]quinazolin-5-amine] | – |
| 3.81 | 7.15 | Cc1nnc2nc(N(CC(F)F)c3ccnc(C#CC4(C(F)F)CC4)c3F)c3c(F)cccc3n12 [Example 44, N-(2,2-difluoroethyl)-N-[2-[2-[1-(difluoromethyl)cyclopropyl]ethynyl]-3-fluoro-4-pyridyl]-6-fluoro-1-methyl-[1,2,4]triazolo[4,3-a]quinazolin-5-amine] | – |
| 15.6 | 1.75 | CC(C)(C#Cc1cc(F)cc(N(CC(F)F)c2nc3nncn3c3c(Cl)cc(F)cc23)c1)C(F)F [Example 46, 9-chloro-N-[3-(4,4-difluoro-3,3-dimethyl-but-1-ynyl)-5-fluoro-phenyl]-N-(2,2-difluoroethyl)-7-fluoro-[1,2,4]triazolo[4,3-a]quinazolin-5-amine] | – |
